What all share (test): Cysteine liganding, probe competition
What all share (format): binding

The target in test [1] is T1, DCAF17 DDB1- and CUL4-associated factor 17 (Homo sapiens, UniProt Q5H9S7).
T1 construct: Cells were resuspended in cold PBS on ice and sonicated with a probe sonicator to achieve lysis; endogenous in cells
T1 sequence (Q5H9S7 1-520): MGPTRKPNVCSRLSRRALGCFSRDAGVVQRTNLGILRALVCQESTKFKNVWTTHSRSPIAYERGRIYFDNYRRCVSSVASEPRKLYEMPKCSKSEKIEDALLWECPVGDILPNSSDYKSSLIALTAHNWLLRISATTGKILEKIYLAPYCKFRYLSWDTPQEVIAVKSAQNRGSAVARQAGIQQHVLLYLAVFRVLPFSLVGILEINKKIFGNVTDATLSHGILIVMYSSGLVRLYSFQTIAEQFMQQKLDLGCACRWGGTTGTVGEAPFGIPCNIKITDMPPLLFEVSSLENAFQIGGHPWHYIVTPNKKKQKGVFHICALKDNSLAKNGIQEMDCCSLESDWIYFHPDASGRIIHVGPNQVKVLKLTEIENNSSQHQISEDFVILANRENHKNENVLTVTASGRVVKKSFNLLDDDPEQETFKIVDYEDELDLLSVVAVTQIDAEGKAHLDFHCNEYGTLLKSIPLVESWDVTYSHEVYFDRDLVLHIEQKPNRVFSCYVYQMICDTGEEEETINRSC
In a few lines:
(§1)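 Read-out is loss of desthiobiotin iodoacetamide labelling at cysteines, measured on streptavidin-enriched tryptic peptides. Compound preincubation ran 1 hr at 25° C in PBS lysate holding 5 mg/ml proteome before the probe was added.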

For test [2], the target named is T2, TBC1D15 TBC1 domain family member 15 (Homo sapiens, UniProt Q8TC07).
T2 construct: Cells were resuspended in cold PBS on ice and sonicated with a probe sonicator to achieve lysis; endogenous in cells
T2 sequence (Q8TC07 1-691): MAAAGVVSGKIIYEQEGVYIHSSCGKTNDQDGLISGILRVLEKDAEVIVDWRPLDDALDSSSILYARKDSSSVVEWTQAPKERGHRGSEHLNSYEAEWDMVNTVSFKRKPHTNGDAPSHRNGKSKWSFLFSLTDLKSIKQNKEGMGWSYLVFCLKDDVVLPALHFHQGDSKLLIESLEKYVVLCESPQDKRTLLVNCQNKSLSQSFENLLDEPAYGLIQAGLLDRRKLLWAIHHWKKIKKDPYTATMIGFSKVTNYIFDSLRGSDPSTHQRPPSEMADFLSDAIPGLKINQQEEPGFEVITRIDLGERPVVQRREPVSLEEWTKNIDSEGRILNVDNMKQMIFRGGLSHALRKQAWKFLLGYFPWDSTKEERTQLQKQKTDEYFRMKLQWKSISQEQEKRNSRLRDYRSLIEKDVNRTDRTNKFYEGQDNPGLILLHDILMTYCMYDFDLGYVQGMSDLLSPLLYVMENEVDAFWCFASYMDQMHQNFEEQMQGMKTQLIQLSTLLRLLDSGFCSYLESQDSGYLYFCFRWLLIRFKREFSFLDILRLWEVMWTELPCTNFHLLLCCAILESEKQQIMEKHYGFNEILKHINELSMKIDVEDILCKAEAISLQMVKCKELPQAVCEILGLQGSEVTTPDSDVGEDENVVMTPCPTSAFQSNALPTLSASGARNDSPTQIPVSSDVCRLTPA
The procedure, abridged:
as §1

Test [3] concerns the target T3, UBR4 E3 ubiquitin-protein ligase UBR4 (Homo sapiens, UniProt Q5T4S7).
T3 construct: Cells were resuspended in cold PBS on ice and sonicated with a probe sonicator to achieve lysis; endogenous in cells
The procedure, abridged: as §1

T3 sequence (Q5T4S7 whole entry): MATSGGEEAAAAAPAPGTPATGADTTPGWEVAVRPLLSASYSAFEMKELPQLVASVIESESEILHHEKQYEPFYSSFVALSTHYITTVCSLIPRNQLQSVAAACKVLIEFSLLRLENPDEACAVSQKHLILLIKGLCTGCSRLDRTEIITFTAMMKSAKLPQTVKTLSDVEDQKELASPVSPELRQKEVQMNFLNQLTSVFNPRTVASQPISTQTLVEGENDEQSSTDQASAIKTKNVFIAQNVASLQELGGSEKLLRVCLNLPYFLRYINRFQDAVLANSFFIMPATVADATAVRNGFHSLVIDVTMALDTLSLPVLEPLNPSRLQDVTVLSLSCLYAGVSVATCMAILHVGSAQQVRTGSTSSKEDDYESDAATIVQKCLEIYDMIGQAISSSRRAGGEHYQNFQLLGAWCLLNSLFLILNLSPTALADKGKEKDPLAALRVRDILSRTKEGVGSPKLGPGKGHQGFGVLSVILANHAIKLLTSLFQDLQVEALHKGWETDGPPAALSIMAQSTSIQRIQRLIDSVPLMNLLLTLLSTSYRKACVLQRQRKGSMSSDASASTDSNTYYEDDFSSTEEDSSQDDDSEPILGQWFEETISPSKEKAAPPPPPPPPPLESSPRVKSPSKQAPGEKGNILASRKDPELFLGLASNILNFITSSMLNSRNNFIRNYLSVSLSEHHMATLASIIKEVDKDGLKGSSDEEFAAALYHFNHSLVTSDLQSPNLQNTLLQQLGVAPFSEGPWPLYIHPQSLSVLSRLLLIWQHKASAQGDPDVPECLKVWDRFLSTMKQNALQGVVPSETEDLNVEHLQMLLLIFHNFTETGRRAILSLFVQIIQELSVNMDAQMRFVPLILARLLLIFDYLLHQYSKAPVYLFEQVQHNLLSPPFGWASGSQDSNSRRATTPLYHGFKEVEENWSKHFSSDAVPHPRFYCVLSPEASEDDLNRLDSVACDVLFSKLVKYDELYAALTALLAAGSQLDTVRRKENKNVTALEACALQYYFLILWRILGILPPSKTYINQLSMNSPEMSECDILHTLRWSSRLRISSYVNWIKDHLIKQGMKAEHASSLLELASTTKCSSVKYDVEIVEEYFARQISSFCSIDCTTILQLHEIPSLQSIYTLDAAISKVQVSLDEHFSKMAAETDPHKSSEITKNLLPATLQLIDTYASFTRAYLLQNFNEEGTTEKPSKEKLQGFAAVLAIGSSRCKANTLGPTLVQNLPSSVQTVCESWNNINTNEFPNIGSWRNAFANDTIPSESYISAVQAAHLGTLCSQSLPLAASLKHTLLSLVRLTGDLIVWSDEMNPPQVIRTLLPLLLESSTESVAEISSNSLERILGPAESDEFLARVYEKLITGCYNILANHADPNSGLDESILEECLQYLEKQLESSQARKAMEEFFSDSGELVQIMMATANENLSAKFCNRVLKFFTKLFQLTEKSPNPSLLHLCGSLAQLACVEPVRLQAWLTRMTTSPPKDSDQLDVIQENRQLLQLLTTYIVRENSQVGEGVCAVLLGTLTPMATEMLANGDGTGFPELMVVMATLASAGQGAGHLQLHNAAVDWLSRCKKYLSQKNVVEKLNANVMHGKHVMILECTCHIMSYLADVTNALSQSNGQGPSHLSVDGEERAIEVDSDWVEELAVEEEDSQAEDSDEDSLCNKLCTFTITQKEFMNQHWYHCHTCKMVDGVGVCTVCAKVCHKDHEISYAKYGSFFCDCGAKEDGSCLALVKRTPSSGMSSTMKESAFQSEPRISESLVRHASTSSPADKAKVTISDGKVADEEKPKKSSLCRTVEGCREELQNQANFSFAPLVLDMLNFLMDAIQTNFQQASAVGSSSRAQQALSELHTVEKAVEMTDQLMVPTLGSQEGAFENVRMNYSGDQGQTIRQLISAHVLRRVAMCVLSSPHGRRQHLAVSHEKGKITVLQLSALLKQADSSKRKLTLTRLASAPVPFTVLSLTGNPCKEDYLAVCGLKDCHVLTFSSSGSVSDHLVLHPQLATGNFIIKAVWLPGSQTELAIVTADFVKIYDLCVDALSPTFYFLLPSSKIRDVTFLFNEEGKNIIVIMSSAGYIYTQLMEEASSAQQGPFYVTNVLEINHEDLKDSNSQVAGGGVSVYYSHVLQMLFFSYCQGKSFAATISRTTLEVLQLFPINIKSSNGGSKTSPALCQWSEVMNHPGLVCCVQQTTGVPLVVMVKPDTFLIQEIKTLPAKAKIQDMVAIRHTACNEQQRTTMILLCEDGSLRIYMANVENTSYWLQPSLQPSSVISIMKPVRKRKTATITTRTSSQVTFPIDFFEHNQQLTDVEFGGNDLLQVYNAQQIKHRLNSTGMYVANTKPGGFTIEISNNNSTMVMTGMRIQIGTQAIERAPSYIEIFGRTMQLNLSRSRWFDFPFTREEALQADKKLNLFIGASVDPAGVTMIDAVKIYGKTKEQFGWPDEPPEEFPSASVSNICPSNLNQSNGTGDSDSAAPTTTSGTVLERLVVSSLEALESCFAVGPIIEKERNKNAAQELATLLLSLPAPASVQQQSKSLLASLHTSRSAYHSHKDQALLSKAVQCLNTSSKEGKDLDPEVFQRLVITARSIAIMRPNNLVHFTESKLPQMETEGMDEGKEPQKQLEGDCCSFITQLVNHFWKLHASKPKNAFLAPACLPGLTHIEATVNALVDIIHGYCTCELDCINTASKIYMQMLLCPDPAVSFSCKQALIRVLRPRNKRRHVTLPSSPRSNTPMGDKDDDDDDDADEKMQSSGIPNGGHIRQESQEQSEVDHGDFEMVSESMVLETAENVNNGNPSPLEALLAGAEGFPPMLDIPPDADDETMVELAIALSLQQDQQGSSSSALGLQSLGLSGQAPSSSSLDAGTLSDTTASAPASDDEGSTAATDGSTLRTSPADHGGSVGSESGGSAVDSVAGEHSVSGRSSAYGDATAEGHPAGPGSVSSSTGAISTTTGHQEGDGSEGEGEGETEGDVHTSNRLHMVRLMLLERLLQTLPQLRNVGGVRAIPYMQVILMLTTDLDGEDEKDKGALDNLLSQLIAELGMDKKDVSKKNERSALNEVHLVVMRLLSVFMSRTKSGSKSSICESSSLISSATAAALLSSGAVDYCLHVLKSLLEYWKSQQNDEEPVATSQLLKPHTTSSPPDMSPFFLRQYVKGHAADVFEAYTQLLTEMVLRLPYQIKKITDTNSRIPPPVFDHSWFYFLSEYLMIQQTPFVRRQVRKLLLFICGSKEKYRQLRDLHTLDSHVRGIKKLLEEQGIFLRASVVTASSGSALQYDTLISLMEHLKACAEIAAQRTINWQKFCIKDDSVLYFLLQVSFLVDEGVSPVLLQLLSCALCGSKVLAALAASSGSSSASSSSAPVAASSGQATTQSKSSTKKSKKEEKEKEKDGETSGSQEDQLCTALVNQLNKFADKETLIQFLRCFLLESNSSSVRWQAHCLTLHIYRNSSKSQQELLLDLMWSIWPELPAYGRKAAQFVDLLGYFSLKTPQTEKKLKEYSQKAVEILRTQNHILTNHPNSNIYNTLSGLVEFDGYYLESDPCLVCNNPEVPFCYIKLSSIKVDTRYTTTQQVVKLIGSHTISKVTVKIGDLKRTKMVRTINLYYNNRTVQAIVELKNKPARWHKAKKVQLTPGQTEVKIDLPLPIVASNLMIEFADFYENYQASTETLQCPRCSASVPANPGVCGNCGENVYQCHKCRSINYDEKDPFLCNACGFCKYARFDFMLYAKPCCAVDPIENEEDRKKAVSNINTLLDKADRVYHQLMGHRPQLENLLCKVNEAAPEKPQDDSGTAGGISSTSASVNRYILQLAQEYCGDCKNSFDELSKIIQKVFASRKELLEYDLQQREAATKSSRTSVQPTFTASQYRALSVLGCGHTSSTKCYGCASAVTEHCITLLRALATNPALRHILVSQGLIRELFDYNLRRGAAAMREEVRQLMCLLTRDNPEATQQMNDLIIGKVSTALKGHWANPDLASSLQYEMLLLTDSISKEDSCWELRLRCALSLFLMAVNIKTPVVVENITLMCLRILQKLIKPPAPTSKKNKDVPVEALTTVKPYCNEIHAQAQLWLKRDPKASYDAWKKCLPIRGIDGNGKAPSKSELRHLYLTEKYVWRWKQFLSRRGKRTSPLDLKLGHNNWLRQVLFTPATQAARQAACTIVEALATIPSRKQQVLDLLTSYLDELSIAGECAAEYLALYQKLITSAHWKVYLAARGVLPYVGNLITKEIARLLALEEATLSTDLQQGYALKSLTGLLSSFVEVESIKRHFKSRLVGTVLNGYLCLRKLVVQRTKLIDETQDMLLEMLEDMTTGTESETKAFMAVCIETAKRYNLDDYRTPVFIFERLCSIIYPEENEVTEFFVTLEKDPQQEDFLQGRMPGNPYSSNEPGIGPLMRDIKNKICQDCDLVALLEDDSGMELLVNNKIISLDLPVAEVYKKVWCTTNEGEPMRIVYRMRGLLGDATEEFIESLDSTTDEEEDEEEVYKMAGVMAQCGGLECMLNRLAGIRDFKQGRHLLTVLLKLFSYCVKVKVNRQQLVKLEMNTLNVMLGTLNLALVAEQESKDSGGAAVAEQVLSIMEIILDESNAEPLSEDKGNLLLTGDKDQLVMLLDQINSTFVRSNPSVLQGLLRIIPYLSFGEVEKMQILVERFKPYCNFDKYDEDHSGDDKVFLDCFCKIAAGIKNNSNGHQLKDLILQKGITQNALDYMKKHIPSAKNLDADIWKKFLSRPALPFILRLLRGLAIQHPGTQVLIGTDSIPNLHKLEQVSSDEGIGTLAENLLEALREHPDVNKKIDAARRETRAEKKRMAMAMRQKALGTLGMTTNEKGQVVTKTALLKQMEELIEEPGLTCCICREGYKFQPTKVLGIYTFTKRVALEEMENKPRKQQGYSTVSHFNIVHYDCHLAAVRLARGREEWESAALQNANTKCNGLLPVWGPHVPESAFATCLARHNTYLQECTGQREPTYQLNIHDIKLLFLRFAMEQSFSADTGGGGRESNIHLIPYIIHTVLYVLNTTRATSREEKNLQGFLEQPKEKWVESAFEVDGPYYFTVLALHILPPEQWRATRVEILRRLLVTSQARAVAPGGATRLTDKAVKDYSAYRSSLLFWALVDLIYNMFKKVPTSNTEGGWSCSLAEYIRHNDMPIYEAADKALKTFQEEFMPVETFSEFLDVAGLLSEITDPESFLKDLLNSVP

Consider `COc1ccc2c(c1)CCCN2C(=O)CCl` [KB02], for which, in test [1] (DCAF17 Res# 20, uniprot Q5H9S7), the Liganded result is “YES”. Moreover, in test [1] (uniprot Q5H9S7), the “100 Max” value amounted to 60.8, the 100 ave turned out to be 40.3, the “500 Max” value turned out to be 91.7 and the 500 ave is 91.7. The Liganded result in test [2] (TBC1D15 Res# 24, uniprot Q8TC07) was “YES”. In addition, the Liganded entry in test [3] (UBR4 Res# 4049, uniprot Q5T4S7) was “YES”.
For the compound `O=C(CCl)Nc1cc(C(F)(F)F)cc(C(F)(F)F)c1` [KBO3], in test [1] (uniprot Q5H9S7), the “100 Max” value was −21.2 and the 100 ave is on record as −21.2. Moreover, in test [2] (uniprot Q8TC07), the “100 Max” value was determined as 7.83, the 100 ave amounted to 0.88, the “500 Max” value came out at 47.51 and the 500 ave was 47.51. In test [3] (uniprot Q5T4S7), the “100 Max” value was 13.1, the 100 ave was −4.9, the “500 Max” value is 49.5 and the 500 ave is reported as 29.3.

These data come from patent US20200239530A1, “COMPOUNDS AND METHODS OF MODULATING PROTEIN DEGRADATION” (Vividion Therapeutics, Inc., priority 2017, published 2020).
